# pIC50: −log10 of the molar value. Numbered stars: 1 amine (or outer) side, 2 acyl side, 3 side chain; on linkers, the order of the positions; unused ones are H or OH. Bridge positions count the residues as written; N and C are the ends. Square brackets hold non-standard residues; d marks the D form. Peptide text beside a SMILES is read from it. * marks the point of attachment. hPhe(3,5-F2-4-CF3) = N[C@@H](CCc1cc(F)c(C(F)(F)F)c(F)c1)C(=O)O; hPhe(3-Cl-4-CF3) = N[C@@H](CCc1ccc(C(F)(F)F)c(Cl)c1)C(=O)O; hPhe(3-F,4-CF3) = N[C@@H](CCc1ccc(C(F)(F)F)c(F)c1)C(=O)O; NMeAla(4-thiazolyl) = CN[C@@H](Cc1cscn1)C(=O)O; X25 = COc1ccc(C[C@@H](C(=O)[*:2])N(C)[*:1])cn1; 3Oxa8azabicyclo(3.2.1)octane = C1CC2COCC1N2*; NMeAbu(4,4,4-F3) = CN[C@@H](CC(F)(F)F)C(=O)O; NMePhe(3-Cl) = CN[C@@H](Cc1cccc(Cl)c1)C(=O)O; NMePhe(4-Cl) = CN[C@@H](Cc1ccc(Cl)cc1)C(=O)O; NMePhe(4-Me) = CN[C@@H](Cc1ccc(C)cc1)C(=O)O; NMeNle(6-CHF2) = CN[C@@H](CCCCC(F)F)C(=O)O; NMeMet(O2) = CN[C@@H](CCS(C)(=O)=O)C(=O)O; Phe(3-I) = N[C@@H](Cc1cccc(I)c1)C(=O)O; Pro(4,4-F2) = O=C(O)[C@@H]1CC(F)(F)CN1; NMeY = CN[C@@H](Cc1ccc(O)cc1)C(=O)O; NMeCha = CN[C@@H](CC1CCCCC1)C(=O)O; NMeChg = CN[C@H](C(=O)O)C1CCCCC1; NMeI = CC[C@H](C)[C@H](NC)C(=O)O; NMeD = CN[C@@H](CC(=O)O)C(=O)O; NMeL = CN[C@@H](CC(C)C)C(=O)O; NMeV = CN[C@H](C(=O)O)C(C)C; Trifluoroethyl = FC(F)(F)C*; d(β3hA) = C[C@@H](N)CC(=O)O; NMeS = CN[C@@H](CO)C(=O)O; hSer = N[C@@H](CCO)C(=O)O; Ac6c = NC1(C(=O)O)CCCCC1; NMeA = CN[C@@H](C)C(=O)O; NMeAib = CNC(C)(C)C(=O)O; Nle = CCCC[C@H](N)C(=O)O; Piperidide = C1CCN(*)CC1; Pyrrolidide = C1CCN(*)C1; dNMeA = CN[C@H](C)C(=O)O; Ac5c = NC1(C(=O)O)CCCC1; Aze = O=C(O)[C@@H]1CCN1; Ac4c = NC1(C(=O)O)CCC1; Aib = CC(C)(N)C(=O)O; CF3 = FC(F)(F)*; Sar = CNCC(=O)O
# System: Human pancreatic cancer cell line AsPC-1 (G12D mutation Kras)
# Experiment: AsPC-1 cell growth inhibition (AsPC-1 CGI)
# Format: cell-based
# Settings: read-out: AsPC-1 cell growth inhibition, 50% growth inhibitory concentration (IC50 value); 96 hours, CellTiter-Glo, values classified in ranges
# Procedure: Test compounds were serially dilated with dimethyl sulfoxide, and 200 nL was then dispensed to a U-bottom 96-well plate using Labcyte Echo. […] The cell suspension was dispensed to a. plate containing a test compound at 100 μL per well and incubated at 37° C. in a 5% carbon dioxide gas incubator. 96 hours later, 80 μL of CellTiter-Glo (Promega) was added to each well and fluorescence was measured.
row,SMILES,pIC50
1,CC[C@H](C)[C@@H]1NC(=O)[C@H](CC(C)C)N(C)C(=O)C[C@@H](C(=O)N2CCCCC2)N(C)C(=O)[C@H](CCS(C)(=O)=O)N(C)C(=O)C2(CCCC2)NC(=O)[C@@H]2CCCN2C(=O)[C@H](CCc2ccc(C(F)(F)F)c(Cl)c2)NC(=O)CN(C)C(=O)[C@H](CC2CCCCC2)N(C)C(=O)CN(C)C(=O)CN(C)C1=O [Compound 162] ([NMeL]I[Sar][Sar][NMeCha][Sar][hPhe(3-Cl-4-CF3)]P[Ac5c][NMeMet(O2)][NMeD]-Piperidide; lactam N-11),< 6.30
2,CC[C@H](C)[C@@H]1NC(=O)[C@H](C)N(C)C(=O)C[C@@H](C)NC(=O)[C@H](C(C)C)N(C)C(=O)C(C)(C)N(C)C(=O)[C@@H]2CCCN2C(=O)[C@H](CCc2ccc(C(F)(F)F)c(Cl)c2)NC(=O)CN(C)C(=O)[C@H](CC2CCCCC2)N(C)C(=O)CN(C)C(=O)CN(C)C1=O [Compound 93] (cyclo(I[Sar][Sar][NMeCha][Sar][hPhe(3-Cl-4-CF3)]P[NMeAib][NMeV][d(β3hA)][NMeA])),< 6.30
3,CCCC[C@@H]1NC(=O)[C@H](Cc2cccc(I)c2)NC(=O)CN(C)C(=O)[C@H](Cc2ccc(Cl)cc2)N(C)C(=O)CN(C)C(=O)CN(C)C(=O)[C@H]([C@@H](C)CC)NC(=O)[C@H](CC(C)C)N(C)C(=O)C[C@@H](C(=O)N2CCCCC2)N(C)C(=O)[C@H](CC(C)C)NC(=O)[C@H](Cc2ccc(OC(F)(F)F)cc2)N(C)C1=O [Compound 819] ([NMeL]I[Sar][Sar][NMePhe(4-Cl)][Sar][Phe(3-I)][Nle][NMeY](CF3)L[NMeD]-Piperidide; lactam N-11),< 6.30
4,"CC[C@H](C)[C@@H]1NC(=O)[C@H](CC(C)C)N(C)C(=O)C[C@@H](C(=O)N2CCCC2)N(C)C(=O)[C@H](C2CCCCC2)N(C)C(=O)C2(CCC2)NC(=O)[C@@H]2CC(F)(F)CN2C(=O)[C@H](CCc2cc(F)c(C(F)(F)F)c(F)c2)NC(=O)CN(C)C(=O)[C@H](CC2CCCCC2)N(C)C(=O)CN(C)C(=O)CN(C)C1=O [Compound 1192] ([NMeL]I[Sar][Sar][NMeCha][Sar][hPhe(3,5-F2-4-CF3)][Pro(4,4-F2)][Ac4c][NMeChg][NMeD]-Pyrrolidide; lactam N-11)",≥ 7.70
5,"CC[C@H](C)[C@@H]1NC(=O)[C@H](CC(C)C)N(C)C(=O)C[C@@H](C)NC(=O)[C@H](CC(C)C)N(C)C(=O)C(C)(C)NC(=O)[C@H](CC(C)C)N(C)C(=O)[C@H](CCc2ccc(C(F)(F)F)c(F)c2)NC(=O)CN(C)C(=O)[C@H](CCCCC(F)F)N(C)C(=O)CN(C)C(=O)CN(C)C1=O [Compound 1526] (cyclo([Aib][NMeL][d(β3hA)][NMeL]I[Sar][Sar][NMeNle(6-CHF2)][Sar][hPhe(3-F,4-CF3)][NMeL]))",< 6.30
6,"CC[C@H](C)[C@@H]1NC(=O)[C@H](CC(F)(F)F)N(C)C(=O)C[C@@H](C(=O)N2CCCC2)N(C)C(=O)[C@H](C2CCCCC2)N(C)C(=O)C2(CCCC2)NC(=O)[C@@H]2CC(F)(F)CN2C(=O)[C@H](CCc2ccc(C(F)(F)F)c(Cl)c2)NC(=O)CN(C)C(=O)[C@H](CC2CCCCC2)N(C)C(=O)CN(C)C(=O)CN(C)C1=O [Compound 1357] ([NMeAbu(4,4,4-F3)]I[Sar][Sar][NMeCha][Sar][hPhe(3-Cl-4-CF3)][Pro(4,4-F2)][Ac5c][NMeChg][NMeD]-Pyrrolidide; lactam N-11)",≥ 7.70
7,"CC[C@H](C)[C@@H]1NC(=O)[C@H](CC(C)C)N(C)C(=O)C[C@@H](C(=O)N2C3CCC2COC3)N(C)C(=O)[C@H](C2CCCCC2)N(C)C(=O)C2(CCCC2)NC(=O)[C@@H]2CC(F)(F)CN2C(=O)[C@H](CCc2ccc(C(F)(F)F)c(Cl)c2)NC(=O)CN(C)C(=O)[C@H](CC2CCCCC2)N(C)C(=O)CN(C)C(=O)CN(C)C1=O [Compound 1179] ([NMeL]I[Sar][Sar][NMeCha][Sar][hPhe(3-Cl-4-CF3)][Pro(4,4-F2)][Ac5c][NMeChg][NMeD]-{3Oxa8azabicyclo(3.2.1)octane}; lactam N-11)",≥ 7.70
8,CC[C@H](C)[C@@H]1NC(=O)[C@H](C)N(C)C(=O)C[C@@H](C(=O)N2CCCCC2)N(C)C(=O)[C@H](C(C)C)N(C)C(=O)C2(CCCC2)NC(=O)[C@@H]2CCCN2C(=O)[C@H](CCc2ccc(C(F)(F)F)c(Cl)c2)NC(=O)[C@H]2CCCN2C(=O)[C@H](CC2CCCCC2)N(C)C(=O)[C@@H]2CCN2C(=O)CN(C)C1=O [Compound 447] ([NMeA]I[Sar][Aze][NMeCha][dP][hPhe(3-Cl-4-CF3)]P[Ac5c][NMeV][NMeD]-Piperidide; lactam N-11),< 6.30
9,CC[C@H](C)[C@@H]1NC(=O)[C@H](CC(C)C)N(C)C(=O)C[C@@H](C(=O)N2CCCCC2)N(C)C(=O)[C@H](C2CCCCC2)N(C)C(=O)C2(CCCC2)NC(=O)[C@H](Cc2ccc(OC)nc2)N(C)C(=O)[C@H](CCc2ccc(C(F)(F)F)c(Cl)c2)NC(=O)CN(C)C(=O)[C@H](CC2CCCCC2)N(C)C(=O)[C@@H]2CCN2C(=O)CN(C)C1=O [Compound 614] ([NMeL]I[Sar][Aze][NMeCha][Sar][hPhe(3-Cl-4-CF3)][X25][Ac5c][NMeChg][NMeD]-Piperidide; lactam N-11),< 6.30
10,CC(C)C[C@H]1C(=O)N[C@@H](CO)C(=O)N(C)[C@@H](C)C(=O)N2CC[C@H]2C(=O)N(C)[C@@H](CC2CCCCC2)C(=O)N(C)CC(=O)N[C@@H](CCc2ccc(C(F)(F)F)c(Cl)c2)C(=O)N2CCC[C@H]2C(=O)NC2(CCCC2)C(=O)N(C)[C@@H](C(C)C)C(=O)N(C)[C@H](C(=O)N2CCCCC2)CC(=O)N1C [Compound 1768] ([NMeL]S[NMeA][Aze][NMeCha][Sar][hPhe(3-Cl-4-CF3)]P[Ac5c][NMeV][NMeD]-Piperidide; lactam N-11),< 6.30
11,CC[C@H](C)[C@@H]1NC(=O)[C@H](C)N(C)C(=O)C[C@@H](C)NC(=O)[C@H](C(C)C)N(C)C(=O)C2(CCCC2)NC(=O)[C@@H]2CCCN2C(=O)[C@H](CCc2ccc(C(F)(F)F)c(Cl)c2)NC(=O)[C@@H](C)N(C)C(=O)[C@H](CC2CCCCC2)N(C)C(=O)[C@@H]2CCCN2C(=O)CN(C)C1=O [Compound 516] (cyclo([Ac5c][NMeV][d(β3hA)][NMeA]I[Sar]P[NMeCha][dNMeA][hPhe(3-Cl-4-CF3)]P)),< 6.30
12,CC[C@H](C)[C@@H]1NC(=O)[C@H](CC(C)C)N(C)C(=O)C[C@@H](C(=O)N(C)C)N(C)C(=O)[C@H]([C@@H](C)CC)N(C)C(=O)[C@H](C(C)C)NC(=O)[C@H](Cc2cscn2)N(C)C(=O)[C@H](CCc2ccc(C(F)(F)F)c(Cl)c2)NC(=O)CN(C)C(=O)[C@H](Cc2ccc(C)cc2)N(C)C(=O)[C@@H]2CCN2C(=O)[C@H](C)N(C)C1=O [Compound 982] ([NMeL]I[NMeA][Aze][NMePhe(4-Me)][Sar][hPhe(3-Cl-4-CF3)][NMeAla(4-thiazolyl)]V[NMeI][NMeD]-NMe2; lactam N-11),< 6.30
13,"CC[C@H](C)[C@@H]1NC(=O)[C@H](CC(C)C)N(C)C(=O)C[C@@H](C)NC(=O)[C@H](CC(C)C)N(C)C(=O)C2(CCCCC2)NC(=O)[C@@H]2CCCN2C(=O)[C@H](CCc2ccc(C(F)(F)F)c(F)c2)NC(=O)CN(C)C(=O)[C@H](CC2CCCCC2)N(C)C(=O)CN(C)C(=O)CN(C)C1=O [Compound 231] (cyclo([Ac6c][NMeL][d(β3hA)][NMeL]I[Sar][Sar][NMeCha][Sar][hPhe(3-F,4-CF3)]P))",< 6.30
14,CC[C@H](C)[C@@H]1NC(=O)[C@H](CC(C)C)N(C)C(=O)C[C@@H](C(=O)N2CCCCC2)N(C)C(=O)[C@H](COCC(F)(F)F)N(C)C(=O)C2(CCCC2)NC(=O)[C@@H]2CCCN2C(=O)[C@H](CCc2ccc(C(F)(F)F)c(Cl)c2)NC(=O)CN(C)C(=O)[C@H](CC2CCCCC2)N(C)C(=O)CN(C)C(=O)CN(C)C1=O [Compound 208] ([NMeL]I[Sar][Sar][NMeCha][Sar][hPhe(3-Cl-4-CF3)]P[Ac5c][NMeS](Trifluoroethyl)[NMeD]-Piperidide; lactam N-11),< 6.30
15,CC[C@H](C)[C@@H]1NC(=O)[C@H](CC(C)C)N(C)C(=O)C[C@@H](C(=O)N2CCCCC2)N(C)C(=O)[C@H](CC(C)C)NC(=O)C(C)(C)N(C)C(=O)[C@H](CC(C)C)NC(=O)[C@H](Cc2cccc(I)c2)NC(=O)CN(C)C(=O)[C@H](Cc2ccc(Cl)cc2)N(C)C(=O)CN(C)C(=O)CN(C)C1=O [Compound 295] ([NMeL]I[Sar][Sar][NMePhe(4-Cl)][Sar][Phe(3-I)]L[NMeAib]L[NMeD]-Piperidide; lactam N-11),< 6.30
16,CC[C@H](C)[C@@H]1NC(=O)[C@H](CC(C)C)N(C)C(=O)C[C@@H](C(=O)N2CCCC2)N(C)C(=O)[C@H]([C@@H](C)CC)N(C)C(=O)C2(CCCC2)NC(=O)[C@@H]2CCCN2C(=O)[C@H](CCc2ccc(C(F)(F)F)c(Cl)c2)NC(=O)CN(C)C(=O)[C@H](CC2CCCCC2)N(C)C(=O)CN(C)C(=O)CN(C)C1=O [Compound 1662] ([NMeL]I[Sar][Sar][NMeCha][Sar][hPhe(3-Cl-4-CF3)]P[Ac5c][NMeI][NMeD]-Pyrrolidide; lactam N-11),≥ 7.70
17,CC[C@H](C)[C@@H]1NC(=O)[C@H](CC(C)C)N(C)C(=O)C[C@@H](C)NC(=O)[C@H](C(C)C)N(C)C(=O)C2(CCCC2)NC(=O)[C@@H]2CCCN2C(=O)[C@H](CCc2ccc(C(F)(F)F)c(Cl)c2)NC(=O)CN(C)C(=O)[C@H](Cc2cccc(Cl)c2)N(C)C(=O)CN(C)C(=O)CN(C)C1=O [Compound 1623] (cyclo([Ac5c][NMeV][d(β3hA)][NMeL]I[Sar][Sar][NMePhe(3-Cl)][Sar][hPhe(3-Cl-4-CF3)]P)),< 6.30
18,COCC[C@@H]1NC(=O)[C@H](CC(C)C)N(C)C(=O)C[C@@H](C(=O)N2CCCCC2)N(C)C(=O)[C@H](C2CCCCC2)N(C)C(=O)C2(CCCC2)NC(=O)[C@@H]2CCCN2C(=O)[C@H](CCc2ccc(C(F)(F)F)c(Cl)c2)NC(=O)CN(C)C(=O)[C@H](CC2CCCCC2)N(C)C(=O)CN(C)C(=O)CN(C)C1=O [Compound 941] ([NMeL][hSer](Me)[Sar][Sar][NMeCha][Sar][hPhe(3-Cl-4-CF3)]P[Ac5c][NMeChg][NMeD]-Piperidide; lactam N-11),< 6.30
